Results: patent publication US10899738B2 (THE REGENTS OF THE UNIVERSITY OF MICHIGAN, priority 2016, dated 2021)

test system: not listed separately; assay: Cell growth inhibition, CellTiter-Glo Luminescent Cell Viability Assay; format: cell-based; conditions: MOLM-13, 96 h, read-out: Cell Growth Inhibition IC50 (μM) MOLM13
Procedure: Cell growth inhibitory activity of representative menin inhibitors was determined using CellTiter-Glo® Luminescent Cell Viability Assay. Cells were seeded in 384-well white opaque cell culture plates at a density of 2,000 cells/well with serially diluted compounds and incubated at 37° C. in an atmosphere of 95% air and 5% CO2 for 4 days. Cell viability was determined using the CellTiter-Glo® Luminescent Cell Viability Assay Kit (Promega, Madison, Wis.) according to the manufacture's instruction. Briefly, a volume of CellTiter-Glo® Reagent equal to the volume of cell culture medium was added to each well, and then the plates were incubated at room temperature for 10-20 minutes. The luminescent signal was measured using a Tecan Infinite M1000 multimode microplate reader (Tecan, Morrisville, N.C.). The half maximal inhibitory concentration (IC50) was calculated using the GraphPad Prism 5 software (GraphPad Software, La Jolla, Calif.).

| Compound | IC50 [µM] |
| --- | --- |
| N#Cc1ccc(OCCCN2CCC(C3(C4CCCC4)NCCc4ccccc43)CC2)cc1 (stereo not shown) [compound 27, 4-(3-(4-(1-cyclopentyl-1,2,3,4-tetrahydroisoquinolin-1-yl)piperidin-1-yl)propoxy)benzonitrile] | 3.6 |

same assay, conditions: MOLM-13, 96 h, read-out: Cell Growth Inhibition IC50 (μM) MOLM13, MOLM13 cells, 4 days, CellTiter-Glo

| Compound | IC50 [µM] |
| --- | --- |
| COC(=O)N[C@H]1CCC[C@@H]1[C@](C#N)(c1ccccc1)C1CCN(CC2CN(c3ccc(S(=O)(=O)C(F)(F)F)cc3)C2)CC1 [Cpd. No. 403, methyl ((1S,2R)-2-((S)-cyano(phenyl)(1-((1-(4-((trifluoromethyl)sulfonyl)phenyl)azetidin-3-yl)methyl)piperidin-4-yl)methyl)cyclopentyl)carbamate] | 1.3 |

same assay, conditions: MV4-11, 96 h, read-out: Cell Growth Inhibition IC50 (μM) MV4; 11

| Compound | IC50 [µM] |
| --- | --- |
| N#Cc1ccc(OCCCN2CCC(C3(C4CCCC4)NCCc4ccccc43)CC2)cc1 (stereo not shown) [compound 27, 4-(3-(4-(1-cyclopentyl-1,2,3,4-tetrahydroisoquinolin-1-yl)piperidin-1-yl)propoxy)benzonitrile] | 0.9 |

same assay, conditions: MV4-11, 96 h, read-out: Cell Growth Inhibition IC50 (μM) MV4; 11, MV4; 11 cells, 4 days, CellTiter-Glo

| Compound | IC50 [µM] |
| --- | --- |
| COC(=O)N[C@H]1CCC[C@@H]1[C@](C#N)(c1ccccc1)C1CCN(CC2CN(c3ccc(S(=O)(=O)C(F)(F)F)cc3)C2)CC1 [Cpd. No. 403, methyl ((1S,2R)-2-((S)-cyano(phenyl)(1-((1-(4-((trifluoromethyl)sulfonyl)phenyl)azetidin-3-yl)methyl)piperidin-4-yl)methyl)cyclopentyl)carbamate] | 0.19 |

molecular target: menin protein (Homo sapiens (Human), UniProt O00255); assay: biochemical; format: binding; conditions: FP competitive binding; menin protein 4 nM, FAM-MM2 probe 2 nM; read-out: Menin Binding Affinity IC50
How it was run: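 Test compounds displaced FAM-MM2 (2 nM) from 4 nM menin after 30 min equilibration at room temperature in PBS buffer containing bovine γ-globulin, 4% DMSO and Triton X-100. Binding was followed by fluorescence polarization. Competition curves were fitted by nonlinear regression to give IC50 and Ki.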

Sequence of menin protein (O00255 whole entry): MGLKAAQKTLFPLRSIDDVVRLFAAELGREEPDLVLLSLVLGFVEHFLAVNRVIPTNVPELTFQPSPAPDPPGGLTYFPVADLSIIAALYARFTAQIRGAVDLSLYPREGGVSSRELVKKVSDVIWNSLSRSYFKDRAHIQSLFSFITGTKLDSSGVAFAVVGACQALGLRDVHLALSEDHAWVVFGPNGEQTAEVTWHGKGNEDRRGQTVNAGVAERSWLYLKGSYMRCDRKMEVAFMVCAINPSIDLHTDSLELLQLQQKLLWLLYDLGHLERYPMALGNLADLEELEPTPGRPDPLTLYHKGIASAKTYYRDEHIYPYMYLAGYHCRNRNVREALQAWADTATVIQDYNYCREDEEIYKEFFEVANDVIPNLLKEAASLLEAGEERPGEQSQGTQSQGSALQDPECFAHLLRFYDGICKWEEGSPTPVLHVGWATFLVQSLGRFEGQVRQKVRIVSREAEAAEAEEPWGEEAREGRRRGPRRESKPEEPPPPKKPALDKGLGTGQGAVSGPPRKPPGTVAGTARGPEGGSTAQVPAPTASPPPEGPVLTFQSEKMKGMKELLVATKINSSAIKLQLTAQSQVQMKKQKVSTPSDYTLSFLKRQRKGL

| IC50 [µM] | Compound |
| --- | --- |
| 6.9 | CC(=O)OC[C@@H]1CCC[C@H]1C(C#N)(c1ccccc1)C1CCN(CC2CN(c3ccc(S(=O)(=O)C4CC4)cc3)C2)CC1 (mixture of isomers) [compound 262, rac-((1R,2R)-2-(cyano(1-((1-(4-(cyclopropylsulfonyl)phenyl)azetidin-3-yl)methyl)piperidin-4-yl)(phenyl)methyl)cyclopentyl) methyl acetate] |
| 2.4 | O=S(=O)(c1ccc(OC2CC(N3CCC(C4(C5CCCC5)NCCc5ccccc54)CC3)C2)cc1)C1CC1 (stereo not shown) [compound 90, 1-cyclopentyl-1-(1-((1r,3r)-3-(4-(cyclopropylsulfonyl)phenoxy)cyclobutyl)piperidin-4-yl)-1,2,3,4-tetrahydroisoquinoline] |
| 0.102 | CC(=O)N[C@H]1CCC[C@@H]1C(C#N)(c1ccccc1)C1CCN(CC2CN(c3ccc(C#N)cc3)C2)CC1 (mixture of isomers) [compound 382, rac-N-((1S,2R)-2-(cyano(1-((1-(4-cyanophenyl)azetidin-3-yl)methyl)piperidin-4-yl)(phenyl)methyl)cyclopentyl)acetamide] |
| 4.7 | CNC(=O)O[C@@H]1CCC[C@H]1C(C#N)(c1ccccc1)C1CCN(CC2CN(c3ccc(C(=O)OC)cc3)C2)CC1 (mixture of isomers) [compound 374, methyl rac-4-(3-((4-(cyano((1S,2R)-2-((methylcarbamoyl)oxy)cyclopentyl)(phenyl)methyl)piperidin-1-yl)methyl)azetidin-1-yl)benzoate] |
| 5.7 | CC(=O)O[C@@H]1CCC[C@H]1C(C#N)(c1ccccc1F)C1CCN(CC2CN(c3ccc(S(=O)(=O)C4CC4)cc3)C2)CC1 (mixture of isomers) [compound 311, rac-(1R,2S)-2-(cyano(1-((1-(4-(cyclopropylsulfonyl)phenyl)azetidin-3-yl)methyl)piperidin-4-yl)(2-fluorophenyl)methyl) cyclopentyl acetate] |
| 0.004 | CNC(=O)O[C@H]1CCC[C@@H]1C(Cn1ccnc1)(c1ccccc1)C1CCN(CC2CN(c3ccc(S(=O)(=O)C4COC4)cc3)C2)CC1 (mixture of isomers) [compound 412, rac-(1S,2R)-2-(2-(1H-imidazol-1-yl)-1-(1-((1-(4-(oxetan-3-ylsulfonyl)phenyl)azetidin-3-yl)methyl)piperidin-4-yl)-1-phenylethyl)cyclopentyl methylcarbamate] |
| 3.1 | CNC(=O)O[C@@H]1CCC[C@H]1C(C#N)(c1ccccc1)C1CCN(CC2CN(c3ccc(C#N)cc3)C2)CC1 (mixture of isomers) [compound 364, rac-(1R,2S)-2-(cyano(1-((1-(4-cyanophenyl)azetidin-3-yl)methyl)piperidin-4-yl)(phenyl)methyl)cyclopentyl methylcarbamate] |
| 0.849 | CNC(=O)O[C@@H]1CCC[C@H]1C(C#N)(c1ccccc1)C1CCN(CC2CN(c3ccc(S(=O)(=O)c4cnn(C)c4)cc3)C2)CC1 (mixture of isomers) [compound 241, rac-(1R,2S)-2-(cyano(1-((1-(4-((1-methyl-1H-pyrazol-4-yl)sulfonyl)phenyl)azetidin-3-yl)methyl)piperidin-4-yl)(phenyl)methyl)cyclopentyl methylcarbamate] |
| 2.7 | COC(=O)N[C@@H]1CCC[C@H]1C(C#N)(c1ccccc1)C1CCN(CC2CN(c3ccc(S(=O)(=O)c4ccc(C(=O)O)cc4)cc3)C2)CC1 (mixture of isomers) [compound 352, rac-4-((4-(3-((4-(cyano((1S,2R)-2-((methoxycarbonyl)amino)cyclopentyl)(phenyl)methyl)piperidin-1-yl)methyl)azetidin-1-yl)phenyl)sulfonyl)benzoic acid] |
| 3.8 | CS(=O)(=O)c1ccc(N2CC(CN3CCC(C(C#N)(c4ccccc4)[C@@H]4CCC[C@H]4O)CC3)C2)cc1 (mixture of isomers) [compound 179, rac-2-((1S,2R)-2-hydroxycyclopentyl)-2-(1-((1-(4-(methylsulfonyl)phenyl)azetidin-3-yl)methyl)piperidin-4-yl)-2-phenylacetonitrile] |
| 3.3 | CS(=O)(=O)C[C@@H]1CCC[C@H]1C(C#N)(c1ccccc1)C1CCN(CC2CN(c3ccc(S(=O)(=O)c4ccncc4)cc3)C2)CC1 (mixture of isomers) [compound 256, rac-2-((1R,2R)-2-((methylsulfonyl)methyl)cyclopentyl)-2-phenyl-2-(1-((1-(4-(pyridin-4-ylsulfonyl)phenyl)azetidin-3-yl)methyl)piperidin-4-yl)acetonitrile] |
| 18.1 | CO[C@H]1CCC[C@@H]1C(C#N)(c1ccccc1)C1CCN(CC2CN(c3ccc(S(C)(=O)=O)cc3)C2)CC1 (mixture of isomers) [compound 181, rac-2-((1R,2S)-2-methoxycyclopentyl)-2-(1-((1-(4-(methylsulfonyl)phneyl)azetidin-3-yl)methyl)piperidin-4-yl)-2-phenylacetonitrile] |
| 0.881 | CNC(=O)N[C@@H]1CCC[C@H]1C(C#N)(c1ccccc1)C1CCN(CC2CN(c3ccc(S(=O)(=O)c4ccncc4)cc3)C2)CC1 (mixture of isomers) [compound 270, rac-1-((1R,2S)-2-(cyano(phenyl)(1-((1-(4-(pyridin-4-ylsulfonyl)phenyl)azetidin-3-yl)methyl)piperidin-4-yl)methyl)cyclopentyl)-3-methylurea] |
| 0.068 | CNC(=O)O[C@@H]1CCC[C@H]1C(C#N)(c1ccccc1)C1CCN(CC2CN(c3ccc(S(=O)(=O)c4ccn(C)n4)cc3)C2)CC1 (mixture of isomers) [compound 231] |

| Compound | IC50 [µM] |
| --- | --- |
| c1ccc2c(c1)CCNC2(C1CCCC1)C1CCNCC1 (stereo not shown) [compound 72, 1-cyclopentyl-1-(piperidin-4-yl)-1,2,3,4-tetrahydroisoquinoline] | 610 |
| N#Cc1ccc(OCCCN2CCC(CC3(C4CCCC4)NCCc4ccccc43)CC2)cc1 (stereo not shown) [compound 104, 4-(3-(4-((1-cyclopentyl-1,2,3,4-tetrahydroisoquinolin-1-yl)methyl)piperidin-1-yl)propoxy)benzonitrile] | 32.7 |
| N#Cc1ccc(OCCCN2CCC(C3(C4CCCC4)NCCc4sccc43)CC2)cc1 (stereo not shown) [compound 32, 4-(3-(4-(4-cyclopentyl-4,5,6,7-tetrahydrothieno[3,2-c]pyridin-4-yl)piperidin-1-yl)propoxy)benzonitrile] | 0.059 |
| O=S(=O)(c1ccc(N2CC(CN3CCC(C4(C5CCCC5)NCCc5ccccc54)CC3)C2)cc1)C1CCOCC1 (stereo not shown) [compound 97, 1-cyclopentyl-1-(1-((1-(4-((tetrahydro-2H-pyran-4-yl)sulfonyl)phenyl)azetidin-3-yl)methyl)piperidin-4-yl)-1,2,3,4-tetrahydroisoquinoline] | 0.049 |
| Cn1cc(S(=O)(=O)c2ccc(N3CC(CN4CCC(C(CN5CCCC5)(C5=CCCC5)c5ccccc5)CC4)C3)cc2)cn1 (stereo not shown) [compound 357, 4-(1-(cyclopent-1-en-1-yl)-1-phenyl-2-(pyrrolidin-1-yl)ethyl)-1-((1-(4-((1-methyl-1H-pyrazol-4-yl)sulfonyl)phenyl)azetidin-3-yl)methyl)piperidine] | 0.032 |
| N#Cc1ccc(OCCCN2CCC(C3(C4CCCCC4)NCCc4ccccc43)CC2)cc1 (stereo not shown) [compound 298, 4-(3-(4-(1-cyclohexyl-1,2,3,4-tetrahydroisoquinolin-1-yl)piperidin-1-yl)propoxy)benzonitrile] | 0.3 |
| N#Cc1cc2cc(CN3CCC(CC4(C5CCCC5)NCCc5ccccc54)CC3)ccc2[nH]1 (stereo not shown) [compound 112, 5-((4-((1-cyclopentyl-1,2,3,4-tetrahydroisoquinolin-1-yl)methyl)piperidin-1-yl)methyl)-1H-indole-2-carbonitrile] | 41.6 |
| COCCCN1CCC(C2(C3CCCC3)NCCc3ccccc32)CC1 (stereo not shown) [compound 73, 1-cyclopentyl-1-(1-(3-methoxypropyl)piperidin-4-yl)-1,2,3,4-tetrahydroisoquinoline] | 9.9 |
| N#Cc1ccc(OCCCN2CCC(C3(c4ccccc4)NCCc4ccccc43)CC2)cc1 (stereo not shown) [compound 246, 4-(3-(4-(1-phenyl-1,2,3,4-tetrahydroisoquinolin-1-yl)piperidin-1-yl)propoxy)benzonitrile] | 35.6 |
| N#CC(Cc1ccncc1)(c1ccccc1)C1CCN(CC2CN(c3ccc(S(=O)(=O)c4ccncc4)cc3)C2)CC1 (stereo not shown) [compound 343, 2-phenyl-3-(pyridin-4-yl)-2-(1-((1-(4-(pyridin-4-ylsulfonyl)phenyl)azetidin-3-yl)methyl)piperidin-4-yl)propanenitrile] | 8.8 |
